# From patent publication US8492515B2 (priority 2008, dated 2013)
# Bridge positions count the residues as written; N and C are the ends. Square brackets hold non-standard residues; d marks the D form. Ends that are not written are not given here. I, II: the chains in the order shown. Ac6c = NC1(C(=O)O)CCCCC1; Dab = NCC[C@H](N)C(=O)O
# Assays:
# [1] = in vitro; assay type: in vitro ADME, mouse
# Method: The stability of peptide A3-APO was analyzed in commercially available pooled mouse serum diluted to 25% with distilled water as follows. It has been shown that dilution of serum linearly reduces the degradation rate of peptides without changing any other proteolytic parameters (Powell et al., 1992. J. Pharm. Sci. 81: 731-735). […] Specifically, ninety μL of pooled sterile mouse serum (Equitech-Bio, Kerrville, Tex.) was added to 10 μL of peptide A3-APO dissolved in distilled water at 1.28 mg/mL concentration. After incubation periods of 0, 15, 30, 60 or 90, 120 and 240 min at 37° C., 20 μL 15% trichloracetic acid (TCA) was added, the mixture stored at 4° C. for 20 minutes, and centrifuged at 13,000 rpm. The supernatant was submitted to determination of remaining amount of unmodified A3-APO peptide by MS and RP-HPLC.
# [2] = tested on: S. typhimurium G10215; settings: G10215, 16 h
# Excerpt: (§1) To investigate the activity of the A3-APO metabolites, Chex1-Arg20 single chain unit and an Arg7-Arg20 common cleavage fragment were synthesized and studied for their ability to kill Enterobacteriaceae strains in undiluted Muller-Hinton broth, a true measure of potential clinical viability (Otvos et al., 2005. J. Med. Chem. 48: 5349-5359). The peptides of the invention were made on a CEM Liberty automated synthesizer with standard Fmoc-chemistry. The peptides were detached from the resin with the carboxyl terminus of the C-terminal Arg residue being in the form of an amino amide, —C(O)—NH2 (“Chex1-Arg20-NH2” and “Arg7-Arg20-NH2”), while still in the microwave chamber, and were purified by RP-HPLC. […] The biological studies carried out on chemically synthesized peptides in this example and succeeding examples were carried out on the C-terminal modified versions of the peptides wherein the C-terminal carboxylic acid function was in the form of an amide, —C(O)—NH2. Antibacterial growth inhibition assays were performed using sterile 96-well polypropylene plates (Nunc F96 microtiter plates) in a final volume of 100 μL as described previously (Cudic et al., 2002. Peptides 23: 271-283). The cell concentrations were estimated by measuring the ultraviolet absorbance at 600 nm and applying the formula cfu/mL=A600(3.8×10^8), where cfu is the number of colony-forming units. Briefly, 50 μL of a suspension of midlogarithmic phase bacterial cultures diluted to 5×10^5 cfu/mL in Muller-Hinton broth (MHB) was added to 50 μL of serially diluted peptides also dissolved in MHB. The final peptide concentration was 128 μg/mL. Cultures were then incubated at 37° C., 5% CO2 for 16-20 h without shaking, and growth inhibition was measured by recording the absorbance at 600 nm using a microplate reader. […] The minimal inhibitory concentration indicates the lowest peptide dose where no visible bacterial growth is detected after 16 hours incubation in full strength Muller-Hinton broth at 37° C. The peptide Chex-pyrr-Dap dimer was also included in the study. […] (Cudic et al., 2002. Peptides 23: 271-283).
# [3] = tested on: E. coli HK179; settings: HK179, 16 h
# Excerpt: as §1
# [4] = tested on: K. pneumoniae HK123; settings: HK123, 16 h
# Excerpt: as §1
# [5] = tested on: E. coli SEQ102; settings: SEQ102, 16 h
# Excerpt: as §1
# [6] = tested on: A. baumannii ATCC BBA-1605
# Excerpt: as §1
# (§2) Following the protocol of Example 2, minimal inhibitory concentrations of the Chex1-Arg20 peptide against selected bacteria was determined. […] A3-APO was included for comparison.
# [7] = tested on: E. coli 5770
# Excerpt: as §1, §2
# [8] = tested on: S. typhimurium ATCC 14028
# Excerpt: as §1, §2
# [9] = tested on: K. pneumoniae HK 127
# Excerpt: as §1, §2
# [10] = tested on: S. saprophyticus ATCC 15305
# Excerpt: as §1, §2
# [11] = tested on: P. aeruginosa ATCC 39329
# Excerpt: as §1, §2
# [12] = tested on: K. pneumoniae HK 186
# Excerpt: as §1, §2
# [13] = tested on: K. pneumoniae K6
# Excerpt: as §1, §2
# [14] = tested on: S. typhimurium G10215
# Excerpt: as §1, §2
# [15] = tested on: E. coli HK131
# Excerpt: as §1, §2
# [16] = tested on: E. coli HK179
# Excerpt: as §1, §2
# [17] = tested on: E. coli 045-849
# Excerpt: as §1, §2
# [18] = tested on: P. aeruginosa 10
# Excerpt: as §1, §2
# [19] = tested on: E. coli SOTE40
# Excerpt: as §1, §2
# [20] = tested on: K. pneumoniae HK 123
# Excerpt: as §1, §2
# [21] = tested on: S. typhimurium S5
# Excerpt: as §1, §2
# [22] = tested on: E. coli SEQ102
# Excerpt: as §1, §2
# [23] = tested on: K. pneumoniae 012-3132
# Excerpt: as §1, §2
# [24] = in vitro; assay type: in vitro ADME; settings: mouse, serum
# Method: The metabolic stability of peptide A3-APO in full serum in vitro was examined in peptide degredation studies in blood derived media. A3-APO was added to undiluted mouse serum preparation and was incubated in the full serum for 30 minutes. The serum proteins were precipitated and the serum was submitted for mass spectroscopic analysis.
substance,measurement,setting,value
"I: [Ac6c]RPDKPRPYLPRPRPPRPVR[Dab] / II: [Ac6c]RPDKPRPYLPRPRPPRPVR (amide I:21-II:C (inferred)) [Peptide A3-APO, reference compound]",half-life at 0.128 mg/mL,"[1]; 25% pooled mouse serum, 37° C.",~3.83 h
same,original peptide amount remaining intact within the first hour,[1]; serum,almost half
same,MIC against S. typhimurium G10215,[2],16 µg/mL
same,MIC against E. coli HK179,[3],8 µg/mL
same,MIC against K. pneumoniae HK123,[4],16 µg/mL
same,MIC against E. coli SEQ102,[5],16 µg/mL
same,"MIC, A. baumannii ATCC BBA-1605",[6],16 µg/mL
same,"MIC, E. coli 5770",[7],2 µg/mL
same,"MIC, S. typhimurium ATCC 14028",[8],8 µg/mL
same,"MIC, K. pneumoniae HK 127",[9],8 µg/mL
same,"MIC, S. saprophyticus ATCC 15305",[10],2 µg/mL
same,"MIC, P. aeruginosa ATCC 39329",[11],8 µg/mL
same,"MIC, K. pneumoniae HK 186",[12],8 µg/mL
same,"MIC, K. pneumoniae K6",[13],4 µg/mL
same,"MIC, S. typhimurium G10215",[14],4 µg/mL
same,"MIC, E. coli HK131",[15],4 µg/mL
same,"MIC, E. coli HK179",[16],2 µg/mL
same,"MIC, E. coli 045-849",[17],4 µg/mL
same,"MIC, P. aeruginosa 10",[18],8 µg/mL
same,"MIC, E. coli SOTE40",[19],8 µg/mL
same,"MIC, K. pneumoniae HK 123",[20],4 µg/mL
same,"MIC, S. typhimurium S5",[21],8 µg/mL
same,"MIC, E. coli SEQ102",[22],2 µg/mL
same,"MIC, K. pneumoniae 012-3132",[23],2 µg/mL
same,metabolised at 0.5 h,[24],~35%
